# Like-named read-outs stand apart in the source and are kept apart here.
# How the values were obtained:
# [1] = not given; remark: listed apart in the source
smiles,measurement,setting,value
"CC(C)Cc1ccc(C(C)C(=O)O)cc1 (racemic) [ibuprofen, (RS)-2-(4-(2-methylpropyl)phenyl)propanoic acid]",Mole fraction solubility,"neat DES betaine-DEG 1:1, 25°C",0.223±0.0026 mole fraction
same,Mole fraction solubility,"neat DES betaine-GLY 1:2, 25°C, listed as IP",0.297 mole fraction
same,Mole fraction solubility,"neat DES betaine-P2D 1:1, 25°C",0.1561±0.0027 mole fraction
same,Mole fraction solubility,"neat DES betaine-P2D 1:2, 25°C",0.1919±0.0023 mole fraction
same,Mole fraction solubility,"neat DES betaine-P2D 1:4, 25°C",0.2062±0.0014 mole fraction
same,Mole fraction solubility,"neat DES betaine-TEG 1:2, 25°C, listed as IP",0.321 mole fraction
same,Mole fraction solubility,"neat DES choline chloride-B3D 1:1, 25°C",0.1584±0.0030 mole fraction
same,Mole fraction solubility,"neat DES choline chloride-B3D 1:4, 25°C",0.1899±0.0025 mole fraction
same,Mole fraction solubility,"neat DES choline chloride-ETG 1:1, 25°C",0.2167±0.0034 mole fraction
same,Mole fraction solubility,"neat DES choline chloride-ETG 1:2, 25°C",0.3072±0.0025 mole fraction
same,Mole fraction solubility,"neat DES choline chloride-ETG 1:4, 25°C",0.2905±0.0061 mole fraction
same,Mole fraction solubility,"neat DES choline chloride-GLY 1:1, 25°C",0.2793±0.0019 mole fraction
same,Mole fraction solubility,"neat DES choline chloride-GLY 1:2, 25°C",0.3495±0.0031 mole fraction
same,Mole fraction solubility,"neat DES choline chloride-GLY 1:2, 25°C, listed as IP",0.349 mole fraction
same,Mole fraction solubility,"neat DES choline chloride-GLY 1:4, 25°C",0.3187±0.0038 mole fraction
same,Mole fraction solubility,"neat DES choline chloride-P2D 1:1, 25°C",0.1611±0.0024 mole fraction
same,Mole fraction solubility,"neat DES choline chloride-P2D 1:2, 25°C",0.2068±0.0046 mole fraction
same,Mole fraction solubility,"neat DES choline chloride-TEG 1:2, 25°C, listed as IP",0.353 mole fraction
same,Mole fraction solubility,"[1]; DES betaine + TEG 1:2, x*DES 1.0, 25°C",0.3209±0.0024 mole fraction
same,Mole fraction solubility,"[1]; DES betaine + TEG 1:2, x*DES 1.0, 30°C",0.3830±0.0062 mole fraction
same,Mole fraction solubility,"[1]; DES betaine + TEG 1:2, x*DES 1.0, 35°C",0.4548±0.0069 mole fraction
same,Mole fraction solubility,"[1]; DES betaine + TEG 1:2, x*DES 1.0, 40°C",0.5444±0.0067 mole fraction
same,Mole fraction solubility,"[1]; DES choline chloride + TEG 1:2, x*DES 1.0, 25°C",0.3528±0.0029 mole fraction
same,Mole fraction solubility,"[1]; DES choline chloride + TEG 1:2, x*DES 1.0, 30°C",0.4366±0.0077 mole fraction
same,Mole fraction solubility,"[1]; DES choline chloride + TEG 1:2, x*DES 1.0, 35°C",0.5483±0.0115 mole fraction
same,Mole fraction solubility,"[1]; DES choline chloride + TEG 1:2, x*DES 1.0, 40°C",0.6784±0.0040 mole fraction
same,Mole fraction solubility,"[1]; aqueous DES betaine + TEG 1:2, x*DES 0.1, 25°C",0.0396±0.0003 mole fraction
same,Mole fraction solubility,"[1]; aqueous DES betaine + TEG 1:2, x*DES 0.1, 30°C",0.0475±0.0007 mole fraction
same,Mole fraction solubility,"[1]; aqueous DES betaine + TEG 1:2, x*DES 0.1, 35°C",0.0561±0.0003 mole fraction
same,Mole fraction solubility,"[1]; aqueous DES betaine + TEG 1:2, x*DES 0.1, 40°C",0.0688±0.0013 mole fraction
same,Mole fraction solubility,"[1]; aqueous DES betaine + TEG 1:2, x*DES 0.2, 25°C",0.0911±0.0020 mole fraction
same,Mole fraction solubility,"[1]; aqueous DES betaine + TEG 1:2, x*DES 0.2, 30°C",0.1077±0.0009 mole fraction
same,Mole fraction solubility,"[1]; aqueous DES betaine + TEG 1:2, x*DES 0.2, 35°C",0.1301±0.0019 mole fraction
same,Mole fraction solubility,"[1]; aqueous DES betaine + TEG 1:2, x*DES 0.2, 40°C",0.1547±0.0024 mole fraction
same,Mole fraction solubility,"[1]; aqueous DES betaine + TEG 1:2, x*DES 0.3, 25°C",0.1423±0.0035 mole fraction
same,Mole fraction solubility,"[1]; aqueous DES betaine + TEG 1:2, x*DES 0.3, 30°C",0.1670±0.0021 mole fraction
same,Mole fraction solubility,"[1]; aqueous DES betaine + TEG 1:2, x*DES 0.3, 35°C",0.2005±0.0018 mole fraction
same,Mole fraction solubility,"[1]; aqueous DES betaine + TEG 1:2, x*DES 0.3, 40°C",0.2400±0.0050 mole fraction
same,Mole fraction solubility,"[1]; aqueous DES betaine + TEG 1:2, x*DES 0.4, 25°C",0.1950±0.0030 mole fraction
same,Mole fraction solubility,"[1]; aqueous DES betaine + TEG 1:2, x*DES 0.4, 30°C",0.2288±0.0034 mole fraction
same,Mole fraction solubility,"[1]; aqueous DES betaine + TEG 1:2, x*DES 0.4, 35°C",0.2772±0.0045 mole fraction
same,Mole fraction solubility,"[1]; aqueous DES betaine + TEG 1:2, x*DES 0.4, 40°C",0.3302±0.0064 mole fraction
same,Mole fraction solubility,"[1]; aqueous DES betaine + TEG 1:2, x*DES 0.5, 25°C",0.2459±0.0052 mole fraction
same,Mole fraction solubility,"[1]; aqueous DES betaine + TEG 1:2, x*DES 0.5, 30°C",0.2949±0.0045 mole fraction
same,Mole fraction solubility,"[1]; aqueous DES betaine + TEG 1:2, x*DES 0.5, 35°C",0.3502±0.0073 mole fraction
same,Mole fraction solubility,"[1]; aqueous DES betaine + TEG 1:2, x*DES 0.5, 40°C",0.4150±0.0056 mole fraction
same,Mole fraction solubility,"[1]; aqueous DES betaine + TEG 1:2, x*DES 0.6, 25°C",0.2941±0.0043 mole fraction
same,Mole fraction solubility,"[1]; aqueous DES betaine + TEG 1:2, x*DES 0.6, 30°C",0.3535±0.0052 mole fraction
same,Mole fraction solubility,"[1]; aqueous DES betaine + TEG 1:2, x*DES 0.6, 35°C",0.4213±0.0098 mole fraction
same,Mole fraction solubility,"[1]; aqueous DES betaine + TEG 1:2, x*DES 0.6, 40°C",0.5066±0.0066 mole fraction
same,Mole fraction solubility,"[1]; aqueous DES betaine + TEG 1:2, x*DES 0.7, 25°C",0.3409±0.0049 mole fraction
same,Mole fraction solubility,"[1]; aqueous DES betaine + TEG 1:2, x*DES 0.7, 30°C",0.4057±0.0067 mole fraction
same,Mole fraction solubility,"[1]; aqueous DES betaine + TEG 1:2, x*DES 0.7, 35°C",0.4779±0.0128 mole fraction
same,Mole fraction solubility,"[1]; aqueous DES betaine + TEG 1:2, x*DES 0.7, 40°C",0.5883±0.0063 mole fraction
same,Mole fraction solubility,"[1]; aqueous DES betaine + TEG 1:2, x*DES 0.8, 25°C",0.3800±0.0058 mole fraction
same,Mole fraction solubility,"[1]; aqueous DES betaine + TEG 1:2, x*DES 0.8, 25°C, listed as IP",0.380 mole fraction
same,Mole fraction solubility,"[1]; aqueous DES betaine + TEG 1:2, x*DES 0.8, 30°C",0.4493±0.0062 mole fraction
same,Mole fraction solubility,"[1]; aqueous DES betaine + TEG 1:2, x*DES 0.8, 35°C",0.5335±0.0056 mole fraction
same,Mole fraction solubility,"[1]; aqueous DES betaine + TEG 1:2, x*DES 0.8, 40°C",0.6375±0.0137 mole fraction
same,Mole fraction solubility,"[1]; aqueous DES betaine + TEG 1:2, x*DES 0.9, 25°C",0.3582±0.0053 mole fraction
same,Mole fraction solubility,"[1]; aqueous DES betaine + TEG 1:2, x*DES 0.9, 30°C",0.4279±0.0034 mole fraction
same,Mole fraction solubility,"[1]; aqueous DES betaine + TEG 1:2, x*DES 0.9, 35°C",0.5040±0.0073 mole fraction
same,Mole fraction solubility,"[1]; aqueous DES betaine + TEG 1:2, x*DES 0.9, 40°C",0.6012±0.0090 mole fraction
same,Mole fraction solubility,"[1]; aqueous DES choline chloride + TEG 1:2, x*DES 0.1, 25°C",0.0211±0.0003 mole fraction
same,Mole fraction solubility,"[1]; aqueous DES choline chloride + TEG 1:2, x*DES 0.1, 30°C",0.0257±0.0001 mole fraction
same,Mole fraction solubility,"[1]; aqueous DES choline chloride + TEG 1:2, x*DES 0.1, 35°C",0.0318±0.0006 mole fraction
same,Mole fraction solubility,"[1]; aqueous DES choline chloride + TEG 1:2, x*DES 0.1, 40°C",0.0386±0.0006 mole fraction
same,Mole fraction solubility,"[1]; aqueous DES choline chloride + TEG 1:2, x*DES 0.2, 25°C",0.0641±0.0005 mole fraction
same,Mole fraction solubility,"[1]; aqueous DES choline chloride + TEG 1:2, x*DES 0.2, 30°C",0.0783±0.0007 mole fraction
same,Mole fraction solubility,"[1]; aqueous DES choline chloride + TEG 1:2, x*DES 0.2, 35°C",0.0973±0.0012 mole fraction
same,Mole fraction solubility,"[1]; aqueous DES choline chloride + TEG 1:2, x*DES 0.2, 40°C",0.1210±0.0019 mole fraction
same,Mole fraction solubility,"[1]; aqueous DES choline chloride + TEG 1:2, x*DES 0.3, 25°C",0.1227±0.0023 mole fraction
same,Mole fraction solubility,"[1]; aqueous DES choline chloride + TEG 1:2, x*DES 0.3, 30°C",0.1520±0.0019 mole fraction
same,Mole fraction solubility,"[1]; aqueous DES choline chloride + TEG 1:2, x*DES 0.3, 35°C",0.1876±0.0024 mole fraction
same,Mole fraction solubility,"[1]; aqueous DES choline chloride + TEG 1:2, x*DES 0.3, 40°C",0.2338±0.0048 mole fraction
same,Mole fraction solubility,"[1]; aqueous DES choline chloride + TEG 1:2, x*DES 0.4, 25°C",0.1961±0.0021 mole fraction
same,Mole fraction solubility,"[1]; aqueous DES choline chloride + TEG 1:2, x*DES 0.4, 30°C",0.2424±0.0032 mole fraction
same,Mole fraction solubility,"[1]; aqueous DES choline chloride + TEG 1:2, x*DES 0.4, 35°C",0.2953±0.0062 mole fraction
same,Mole fraction solubility,"[1]; aqueous DES choline chloride + TEG 1:2, x*DES 0.4, 40°C",0.3695±0.005 mole fraction
same,Mole fraction solubility,"[1]; aqueous DES choline chloride + TEG 1:2, x*DES 0.5, 25°C",0.2548±0.0063 mole fraction
same,Mole fraction solubility,"[1]; aqueous DES choline chloride + TEG 1:2, x*DES 0.5, 30°C",0.3205±0.0083 mole fraction
same,Mole fraction solubility,"[1]; aqueous DES choline chloride + TEG 1:2, x*DES 0.5, 35°C",0.3919±0.0029 mole fraction
same,Mole fraction solubility,"[1]; aqueous DES choline chloride + TEG 1:2, x*DES 0.5, 40°C",0.4807±0.0064 mole fraction
same,Mole fraction solubility,"[1]; aqueous DES choline chloride + TEG 1:2, x*DES 0.6, 25°C",0.2992±0.0052 mole fraction
same,Mole fraction solubility,"[1]; aqueous DES choline chloride + TEG 1:2, x*DES 0.6, 30°C",0.3723±0.0052 mole fraction
same,Mole fraction solubility,"[1]; aqueous DES choline chloride + TEG 1:2, x*DES 0.6, 35°C",0.4667±0.0108 mole fraction
same,Mole fraction solubility,"[1]; aqueous DES choline chloride + TEG 1:2, x*DES 0.6, 40°C",0.5790±0.0052 mole fraction
same,Mole fraction solubility,"[1]; aqueous DES choline chloride + TEG 1:2, x*DES 0.7, 25°C",0.3351±0.0045 mole fraction
same,Mole fraction solubility,"[1]; aqueous DES choline chloride + TEG 1:2, x*DES 0.7, 30°C",0.4232±0.0081 mole fraction
same,Mole fraction solubility,"[1]; aqueous DES choline chloride + TEG 1:2, x*DES 0.7, 35°C",0.5264±0.0138 mole fraction
same,Mole fraction solubility,"[1]; aqueous DES choline chloride + TEG 1:2, x*DES 0.7, 40°C",0.6531±0.0080 mole fraction
same,Mole fraction solubility,"[1]; aqueous DES choline chloride + TEG 1:2, x*DES 0.8, 25°C",0.3673±0.0062 mole fraction
same,Mole fraction solubility,"[1]; aqueous DES choline chloride + TEG 1:2, x*DES 0.8, 30°C",0.4557±0.0051 mole fraction
same,Mole fraction solubility,"[1]; aqueous DES choline chloride + TEG 1:2, x*DES 0.8, 35°C",0.5712±0.0136 mole fraction
same,Mole fraction solubility,"[1]; aqueous DES choline chloride + TEG 1:2, x*DES 0.8, 40°C",0.7095±0.0082 mole fraction
same,Mole fraction solubility,"[1]; aqueous DES choline chloride + TEG 1:2, x*DES 0.9, 25°C",0.3754±0.0036 mole fraction
same,Mole fraction solubility,"[1]; aqueous DES choline chloride + TEG 1:2, x*DES 0.9, 25°C, listed as IP",0.375 mole fraction
same,Mole fraction solubility,"[1]; aqueous DES choline chloride + TEG 1:2, x*DES 0.9, 30°C",0.4619±0.0105 mole fraction
same,Mole fraction solubility,"[1]; aqueous DES choline chloride + TEG 1:2, x*DES 0.9, 35°C",0.5742±0.0073 mole fraction
same,Mole fraction solubility,"[1]; aqueous DES choline chloride + TEG 1:2, x*DES 0.9, 40°C",0.7138±0.0065 mole fraction

# Source: paper PMC11124057 (Molecules, 2024)
